From ChEMBL document CHEMBL3608258, “Anti-influenza activities of polyphenols from the medicinal mushroom Phellinus baumii” (Bioorg Med Chem Lett, 2015)
The source made the active and inactive calls. No cut-off for these calls is given here.

What was measured:
[1] = Retention time of the compound; assay type: physicochemical
[2] = target: Neuraminidase (Influenza A virus) (UniProt B4URF0); experiment: (§1) Inhibition of recombinant Influenza A virus H1N1 neuraminidase
Neuraminidase [3] = target: T1, Neuraminidase (Influenza A virus, UniProt B4URF0); experiment: as §1
[4] = target: Neuraminidase (Influenza A virus) (UniProt B4URF0); experiment: (§2) Inhibition of recombinant Influenza A virus H5N1 neuraminidase
Neuraminidase [5] = target: T1, Neuraminidase; experiment: as §2
Neuraminidase [6] = target: T1, Neuraminidase; experiment: Inhibition of recombinant Influenza A virus H3N2 neuraminidase
[7] = target: Neuraminidase (Influenza A virus) (UniProt B4URF0); experiment: Noncompetitive inhibition of recombinant Influenza A virus H1N1 neuraminidase using MU-NANA as substrate
[8] = Cytotoxicity against MDCK cells by SRB assay; assay type: cell-based, Canis lupus familiaris; conditions: dog
Influenza A virus [9] = experiment: Antiviral activity against Influenza A virus H1N1 infected in MDCK cells assessed as inhibition of virus-induced cytopathic effect by SRB assay; assay type: functional, organism-based
[10] = Therapeutic index, ratio of CC50 for MDCK cells to IC50 for Influenza A virus H1N1; assay type: cell-based; conditions: dog, read-out: Ratio CC50/IC50
Influenza A virus [11] = experiment: Antiviral activity against Influenza A virus H1N1 infected in MDCK cells assessed as inhibition of virus-induced change in cell morphology at 10 ug/ml after 2 days by microscopic analysis; assay type: functional, organism-based
[12] = target: Neuraminidase (Influenza A virus) (UniProt B4URF0); experiment: Ratio of hispidin IC50 to compound IC50 for recombinant Influenza A virus H1N1 neuraminidase
Influenza A virus [13] = experiment: Ratio of zanamivir IC50 to compound IC50 for Influenza A virus H1N1 infected in MDCK cells assessed as inhibition of virus-induced cytopathic effect by SRB assay; assay type: functional

SMILES | Retention_time [1] | inhibition [2] | IC50 (Neuraminidase [3]) | inhibition [4] | IC50 (Neuraminidase [5]) | IC50 (Neuraminidase [6]) | Kiuc [7] | CC50 [8] | IC50 (Influenza A virus [9]) | selectivity ratio [10] | inhibition (Influenza A virus [11]) | Ratio IC50 [12] | Ratio IC50 (Influenza A virus [13])
O=c1cc(O)cc(/C=C/c2ccc(O)c(O)c2)o1 [HISPIDIN] | 11.6 min | Dose-dependent effect | 50.9 µM | Dose-dependent effect | 16.9 µM | 45.2 µM | 43 µM | > 100 µM | 57.9 µM | > 1.7 | Active |  | 
O=c1oc2cc(/C=C/c3ccc(O)c(O)c3)oc(=O)c2c2cc(O)c(O)cc12 [PHELLIGRIDIN D] | 18.8 min | Dose-dependent effect | 8.8 µM | Dose-dependent effect | 10.9 µM | 10.3 µM | 15.9 µM | > 100 µM | 24.6 µM | > 4.1 | Active | 5.8 | 
CC1=CC(=O)C2(O1)c1c(cc(/C=C/c3ccc(O)c(O)c3)oc1=O)OC2c1ccc(O)c(O)c1 (configuration not stated) [INOSCAVIN A] | 14.9 min | Dose-dependent effect | 20 µM | Dose-dependent effect | 18.5 µM | 18.5 µM | 24.5 µM | 433 µM | 22.6 µM | 4.4 | Active | 2.5 | 2.9
CC(=O)N[C@H]1[C@H]([C@H](O)[C@H](O)CO)OC(C(=O)O)=C[C@@H]1NC(=N)N [ZANAMIVIR] |  |  |  |  |  |  |  |  | 0.0647 µM |  | Active |  | 
O=c1cc(O)cc([C@H]2c3c(cc(/C=C/c4ccc(O)c(O)c4)oc3=O)O[C@@H]2c2ccc(O)c(O)c2)o1 [HYPHOLOMINE B] | 14.5 min | Dose-dependent effect | 22.9 µM | Dose-dependent effect | 12.3 µM | 14.6 µM | 20.9 µM | > 100 µM | 72.8 µM | > 1.4 | Active | 2.2 | 
CC1=CC(=O)[C@H](c2c(O)cc(/C=C/c3ccc(O)c(O)c3)oc2=O)[C@@H](c2ccc(O)c(O)c2)O1 [DAVALLIALACTONE] | 9 min | Dose-dependent effect | 14.2 µM | Dose-dependent effect | 21.8 µM | 21.1 µM | 27.6 µM | 680 µM | 42.8 µM | 2.3 | Active | 3.6 | 
